The source of these data is patent publication US5112820A, “Anti-glaucoma compositions containing 2- and 3-aminomethyl-6-arylcarbonyl- or 6-phenylthio-2,3-dihydropyrrolo-(1,2,3-de)-1,4-benzoxazines and method of use thereof” (Sterling Drug Inc., priority 1990, dated 1992).

Molecules are shown by their SMILES. Read-outs that look alike come from different tables or passages of the source.

One experiment has as its system mouse vas deferens. The experiment can be described thus: mouse vas deferens adrenergic transmission test (MVD). The conditions noted are these: for IC50: inhibition of contractions in the MVD preparation in vitro, active at IC50 of 5.0 μM or less; for inhibition at 10 µM: read-out: MVD percent inhibition at a given dose level. The format is cell-based. The text has this:
Med. Assoc. 217, 1392 (1971)]. […] Opth. 7, 921-923 (1975); Green and Pederson, Effect of delta-9 Tetrahydrocannabinol on Aqueous Dynamics and Ciliary Body Permeability in the Rabbit Eye., Exptl. Eye Research 15, 499-507 (1973); Colasanti, Craig and Allara, Intraocular Pressure, Ocular Toxicity and Neurotoxicity after Administration of Cannabinol or Cannabigerol, Exptl. Eye Research 39, 252-259 (1984)]. Similarly, synthetic cannabinoids also reduce intraocular pressure [Green, Symunds, Oliver and Elijah, Intraocular Pressure Following Systemic Administration of Cannabinoids., Curr. […] Cannabinoid receptor binding sites can be defined as those to which radio-labelled 4-(1,1-dimethyl-heptyl)-2,3'-dihydroxy-6'alpha-(3-hydroxypropyl)-1',2',3',4',-5',6'-hexahydrobiphenyl (CP 55940) binds in a specific and saturable manner and the binding sites are heterogeneously distributed in the brain [Devane, Dysarz, Johnson, Melvin and Howlett, Determination and Characterization of a Cannabinoid Receptor in Rat Brain, Molecular Pharm 34, 605-613 (1988)]. Natural and synthetic cannabinoids and representative examples of the compounds of the present invention bind to CP 55940 binding sites. […] It is believed that agonist activity at the cannabinoid receptor mediates the anti-glaucoma actions of cannabinoids, and that agonist activity at this receptor correlates with ocular pressure lowering actions in man.
The compounds are identified by the Example or the Preparation number above where their preparations are described.

Experiment [1] addresses T1, cannabinoid receptor (CP 55940 binding sites) (Rattus norvegicus, UniProt P20272).
T1 construct: from tissue; host or cells: rat brain membranes (inferred from the cited Devane et al. 1988)
The experiment can be described thus: CP55940 binding assay (CP).

The conditions of experiment [2]: smoking (marijuana, man); topical application or systemic injection (delta-9 tetrahydrocannabinol; cited studies in man and rabbit); cited from earlier work.

T1 sequence (P20272 whole entry): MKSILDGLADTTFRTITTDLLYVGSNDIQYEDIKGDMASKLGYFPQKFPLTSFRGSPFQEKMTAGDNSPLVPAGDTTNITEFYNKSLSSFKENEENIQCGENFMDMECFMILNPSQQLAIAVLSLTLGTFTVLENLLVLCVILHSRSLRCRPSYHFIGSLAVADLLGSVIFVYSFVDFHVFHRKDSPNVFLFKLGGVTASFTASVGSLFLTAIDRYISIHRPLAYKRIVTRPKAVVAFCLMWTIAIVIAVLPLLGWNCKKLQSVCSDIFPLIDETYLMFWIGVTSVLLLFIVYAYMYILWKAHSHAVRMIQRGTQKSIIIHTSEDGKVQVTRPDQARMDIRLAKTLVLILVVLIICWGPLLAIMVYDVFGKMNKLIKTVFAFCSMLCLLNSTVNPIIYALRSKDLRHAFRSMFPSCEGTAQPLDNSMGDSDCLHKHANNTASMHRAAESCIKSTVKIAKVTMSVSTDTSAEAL

Regarding `Cc1c(C(=O)c2cccc3c(Br)cc(Br)cc23)c2cccc3c2n1C(CN1CCOCC1)CO3` (single isomer, unassigned; (-)) [Ex. 1E, (-)-3-(4-morpholinylmethyl)-5-methyl-6-(5,7-dibromonaphthylcarbonyl)-2,3-dihydropyrrolo[1,2,3-de]-1,4-benzoxazine methanesulfonate], the IC50 (commonly the midpoint of a concentration-inhibition curve) in the experiment on mouse vas deferens (methanesulfonate) was 2620 ± 1700 nM. On to `Cc1c(Sc2ccccc2)c2cccc3c2n1C(CN1CCOCC1)CO3` (centres unmarked) [Prep. 4A (d,1)], for which the IC50 in the experiment with mouse vas deferens (Mus musculus) is more than 10000 nM. With `COc1ccc(C(=O)c2c(C)n3c4c(cccc24)OCC3CN2CCOCC2)cc1` (single isomer, unassigned; (-)) [Ex. 2H (1)], in the experiment with mouse vas deferens (Mus musculus), the inhibition (usually the share of the control response that was lost under treatment) at 10 µM turned out to be 44%. Regarding `COc1ccc(C(=O)c2c(C)n3c4c(cccc24)OCC3CN2CCOCC2)cc1` (single isomer, unassigned; (+)) [Ex. 2H (d)], the IC50 in experiment [1] (CP55940 binding, read-out: CP IC50) is 199 nM.

Turning to `CCCCCc1cc(O)c2c(c1)OC(C)(C)[C@@H]1CCC(C)=C[C@@H]21` [delta-9 tetrahydrocannabinol], in experiment [2], the “effect on intraocular pressure” value is recorded as “reduces intraocular pressure”.

Turning to `Cc1c(C(=O)c2cccc3ccccc23)c2cccc3c2n1C(CN1CCOCC1)CO3` (single isomer, unassigned; (+)) [Ex. 2B (d), (+)-3-(4-morpholinylmethyl)-5-methyl-6-(1-naphthylcarbonyl)-2,3-dihydropyrrolo[1,2,3-de]-1,4-benzoxazine methanesulfonate], 43 ± 0.1 nM corresponded to half-maximal inhibition in the experiment on mouse vas deferens (methanesulfonate) (IC50). Regarding `Cc1c(Sc2ccccc2)c2cccc3c2n1C(CN1CCOCC1)CO3` (single isomer, unassigned; (+)) [Prep. 4B (d)], the IC50 with mouse vas deferens amounted to 70 nM. Take `Cc1c(C(=O)c2cccc3ccccc23)c2cccc3c2n1C(CN1CCOCC1)CO3` (single isomer, unassigned; (-)) [Ex. 2B (1), (-)-3-(4-morpholinylmethyl)-5-methyl-6-(1-naphthylcarbonyl)-2,3-dihydropyrrolo[1,2,3-de]-1,4-benzoxazine methanesulfonate]: in the experiment with mouse vas deferens (Mus musculus), the inhibition at 10 µM stood at 37%. For the compound `CCc1c(C(=O)c2ccc(OC)cc2)c2cccc3c2n1C(CN1CCOCC1)CO3` (centres unmarked) [Ex. 2A], the inhibition at 10 µM in the experiment on mouse vas deferens (Mus musculus) turned out to be 27%. As to `Cc1c(C(=O)c2cccc3ccccc23)c2cccc3c2n1CC(CN1CCOCC1)O3` (centres unmarked) [Ex. 2I, 2-(4-morpholinylmethyl)-5-methyl-6-(1-naphthylcarbonyl)2,3-dihydropyrrolo[1,2,3-de]-1,4-benzoxazine], in experiment [1] (CP IC50, CP55940 binding), the IC50 is approximately 10 nM.

`Cc1c(Sc2ccccc2)c2cccc3c2n1C(CN1CCOCC1)CO3` (single isomer, unassigned; (-)) [Prep. 4B (1)] registered an IC50 in the experiment with mouse vas deferens of 690 nM.
